Experiment [1] deals with T1, mTOR (Homo sapiens, UniProt P42345).
T1 construct: purchased Invitrogen Corporation (Carlsbad/CA, USA) PV4753
As to the kind of experiment: Biochemical assay for m-TOR by TR-FRET. The conditions noted are these: 8 μM ATP, 400 nM GFP-4EBP1, 0.5 nM mTOR. An outline of the steps: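 Steps: ATP (8 μM final) plus GFP-4EBP1 (400 nM final) combined with mTOR (0.5 nM final), incubated at rt; buffer HEPES pH 7.5 with 10 mM MnCl2, NaCl, EGTA, DTT. Then stopped with EDTA/Tb3+-anti-p4EBP1 pT46 Ab (0.5 nM). Plates read after 15 min.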
A general note: TR-FRET usually uses a lanthanide donor and a delayed reading to cut background.

Experiment [2] relates to PKB Ser473 phosphorylation in Rat1-myr-HA-p110 alpha cells. As to the kind of experiment: Reverse protein array assay, PKB Ser473 phosphorylation in Rat1-myr-p110 alpha cells. It counts as cell-based. The settings on record: 0.5 h, pAkt Ser473, 30 minutes compound incubation, read-out: p-PKB IC50. An outline of the steps:
(§1)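 Measured: PKB Ser473 phosphorylation by reverse protein array in Rat1 cells expressing myr-HA-p110 alpha, beta or delta, after 30 min compound treatment at 37 °C with 0.2% DMSO vehicle.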

Experiment [3] deals with PKB Ser473 phosphorylation in Rat1-myr-HA-p110 beta cells. As to the kind of experiment: Reverse protein array assay, PKB Ser473 phosphorylation in Rat1-myr-p110 beta cells. The settings on record: 0.5 h, pAkt Ser473, 30 minutes incubation, read-out: p-PKB IC50. In kind it is cell-based. An outline of the steps: as §1
Experiment [4] deals with PKB Ser473 phosphorylation in Rat1-myr-HA-p110 delta cells. The experiment can be described thus: Reverse protein array assay, PKB Ser473 phosphorylation in Rat1-myr-p110 delta cells. In kind it is cell-based. The settings on record: read-out: p-PKB IC50. In short, it runs like this: as §1
The subject of experiment [5] is S6 Ribosomal Protein phosphorylation Ser235/236 in TSC1 null mouse embryo fibroblast (MEF) cells. The experiment can be described thus: Reverse protein array assay, S6 Ribosomal Protein phosphorylation Ser235/236 in TSC1 null MEF cells. In kind it is cell-based. The settings on record: 1 h, pS6 ribosomal protein Ser235/236, 60 minutes incubation, read-out: p-S6 IC50. In short, it runs like this:
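TSC1−/− MEFs, seeded and held ≥20 h at 37 °C/5% CO2, were exposed to 8-step serial compound dilutions (0.02% DMSO final; DMSO vehicle control) for 60 min at 37 °C. Cells were then lysed on ice for 10 min and lysates spotted onto reverse protein array chips.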

Each structure is given as a SMILES string. pIC50: −log10 of the molar value.

T1 sequence (P42345 1360-2549 limits assumed): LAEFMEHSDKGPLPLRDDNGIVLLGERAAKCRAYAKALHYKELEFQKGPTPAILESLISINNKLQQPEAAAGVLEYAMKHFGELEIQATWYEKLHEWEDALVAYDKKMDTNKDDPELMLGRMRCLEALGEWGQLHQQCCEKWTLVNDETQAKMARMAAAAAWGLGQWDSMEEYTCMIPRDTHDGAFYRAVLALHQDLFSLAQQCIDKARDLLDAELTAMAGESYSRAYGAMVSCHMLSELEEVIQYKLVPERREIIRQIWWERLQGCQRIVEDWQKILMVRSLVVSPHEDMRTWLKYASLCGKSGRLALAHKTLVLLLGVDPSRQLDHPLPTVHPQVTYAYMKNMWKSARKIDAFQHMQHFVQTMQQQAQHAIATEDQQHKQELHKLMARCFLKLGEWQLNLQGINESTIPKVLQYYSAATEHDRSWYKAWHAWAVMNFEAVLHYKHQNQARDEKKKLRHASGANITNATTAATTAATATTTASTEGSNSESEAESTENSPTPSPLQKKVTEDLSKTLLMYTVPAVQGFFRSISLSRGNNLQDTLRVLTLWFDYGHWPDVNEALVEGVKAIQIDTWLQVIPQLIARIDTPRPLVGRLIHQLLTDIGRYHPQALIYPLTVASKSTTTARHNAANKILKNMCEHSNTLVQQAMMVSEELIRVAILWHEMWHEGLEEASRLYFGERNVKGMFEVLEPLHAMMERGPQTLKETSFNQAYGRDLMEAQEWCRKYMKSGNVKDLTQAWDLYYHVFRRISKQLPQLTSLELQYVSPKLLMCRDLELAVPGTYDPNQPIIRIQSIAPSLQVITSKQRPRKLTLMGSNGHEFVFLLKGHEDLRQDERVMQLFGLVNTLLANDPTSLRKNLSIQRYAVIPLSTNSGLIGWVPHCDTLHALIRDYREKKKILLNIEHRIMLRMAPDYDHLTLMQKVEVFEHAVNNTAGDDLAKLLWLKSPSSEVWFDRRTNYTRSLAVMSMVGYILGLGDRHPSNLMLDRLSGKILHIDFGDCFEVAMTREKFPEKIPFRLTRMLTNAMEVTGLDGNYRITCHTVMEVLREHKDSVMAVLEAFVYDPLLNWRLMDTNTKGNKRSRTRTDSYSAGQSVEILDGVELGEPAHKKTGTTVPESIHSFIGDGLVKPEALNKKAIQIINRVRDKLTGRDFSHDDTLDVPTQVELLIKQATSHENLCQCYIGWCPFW

Turning to `CNc1ncc(-c2ccc3ncc4c(c3c2)n(-c2c(C)nn(C)c2C)c(=O)n4C)cn1` [Example 80.2], the negative logarithm of the IC50 (pIC50) (usually the negative decadic logarithm of the IC50, by convention in mol/L) in experiment [1] was 6.92; in experiment [2] it was 6.97; in experiment [3], 6.71; in experiment [4], 6.49; in experiment [5], 7.55.

As for `COCc1cc(-c2ccc3ncc4c(c3c2)n(-c2cn(C)nc2Cl)c(=O)n4C)cnc1OC` [Example 201, 1-(3-Chloro-1-methyl-1H-pyrazol-4-yl)-8-(6-methoxy-5-methoxymethyl-pyridin-3-yl)-3-methyl-1,3-dihydro-imidazo[4,5-c]quinolin-2-one], the negative-log IC50 (pIC50) in experiment [1] was 7.57; in experiment [2] it was 7.92; in experiment [3], 7.72; in experiment [4] it was 8.00; in experiment [5], 9.00.

On to `Cc1nn(C)cc1-n1c(=O)n(C)c2cnc3ccc(-c4cccc(OC(C)C)c4F)cc3c21` [Example 83, 1-(1,3-Dimethyl-1H-pyrazol-4-yl)-8-(2-fluoro-3-isopropoxy-phenyl)-3-methyl-1,3-dihydro-imidazo[4,5-c]quinolin-2-one], for which the negative-log IC50 (pIC50) is 7.21 in experiment [1]; 6.71 in experiment [2]; 6.45 in experiment [3]; 6.29 in experiment [4]; 7.42 in experiment [5].

For `Cc1nn(C)cc1-n1c(=O)n(C)c2cnc3ccc(-c4cc(O)cc(C(F)(F)F)c4)cc3c21` [Example 34, 1-(1,3-Dimethyl-1H-pyrazol-4-yl)-8-(3-hydroxy-5-trifluoromethyl-phenyl)-3-methyl-1,3-dihydro-imidazo[4,5-c]quinolin-2-one], the pIC50 in experiment [1] is 6.88; in experiment [2], 6.86; in experiment [3], 6.82; in experiment [4] it was 6.69; in experiment [5], 8.45.

As for `CNC(=O)c1ccc(-c2ccc3ncc4c(c3c2)n(-c2cn(C)nc2Cl)c(=O)n4C)cc1` [Example 43.2, 4-[1-(3-Chloro-1-methyl-1H-pyrazol-4-yl)-3-methyl-2-oxo-2,3-dihydro-1H-imidazol[4,5-c]quinolin-8-yl]-N-methyl-benzamide], the pIC50 in experiment [1] is 8.40; in experiment [2] it was 8.22; in experiment [3], greater than 8.30; in experiment [4] it was 7.92; in experiment [5], greater than 9.30.

Turning to `COc1cc(-c2ccc3ncc4c(c3c2)n(-c2cn(CCO)nc2C)c(=O)n4C)cnc1C` [Example 211.1, 1-[1-(2-Hydroxy-ethyl)-3-methyl-1H-pyrazol-4-yl]-8-(5-methoxy-6-methyl-pyridin-3-yl)-3-methyl-1,3-dihydro-imidazo[4,5-c]quinolin-2-one], the negative logarithm of the IC50 (pIC50) was 7.89 in experiment [1]; 7.96 in experiment [2]; 7.21 in experiment [3]; 6.68 in experiment [4]; 7.68 in experiment [5].

As to `CNc1ncc(-c2ccc3ncc4c(c3c2)n(-c2c(C)noc2C)c(=O)n4C)cc1Cl` [Example 146.6, 8-(5-Chloro-6-methylamino-pyridin-3-yl)-1-(3,5-dimethyl-isoxazol-4-yl)-3-methyl-1,3-dihydro-imidazo[4,5-c]quinolin-2-one], the negative-log IC50 (pIC50) in experiment [1] is 6.32; in experiment [2], 6.76; in experiment [3], 6.37; in experiment [4], 6.25; in experiment [5], 6.56.

On to `COCc1cc(-c2ccc3ncc4c(c3c2)n(-c2cn(C(C)C)nc2C)c(=O)n4C)cnc1N` [Example 168.1, 8-(6-Amino-5-methoxymethyl-pyridin-3-yl)-1-(1-isopropyl-3-methyl-1H-pyrazol-4-yl)-3-methyl-1,3-dihydro-imidazo[4,5-c]quinolin-2-one], for which the pIC50 in experiment [1] is 7.92; in experiment [2] it was 7.70; in experiment [3], 7.60; in experiment [4], 7.30; in experiment [5] it was 9.00.

`COc1ccc(-c2ccc3ncc4c(c3c2)n(-c2cnn(C)c2C)c(=O)n4C)cn1` [Example 2.9, 1-(1,5-Dimethyl-1H-pyrazol-4-yl)-8-(6-methoxy-pyridin-3-yl)-3-methyl-1,3-dihydro-imidazo[4,5-c]quinolin-2-one]: the negative-log IC50 (pIC50) was 6.82 in experiment [1]; 7.36 in experiment [2]; 6.85 in experiment [3]; 6.78 in experiment [4]; 7.57 in experiment [5].

Consider `COc1ccc(-c2ccc3ncc4c(c3c2)n(-c2cn(CC(=O)N(C)C)nc2C)c(=O)n4C)cn1` [Example 102, 2-{4-[8-(6-Methoxy-pyridin-3-yl)-3-methyl-2-oxo-2,3-dihydro-imidazo[4,5-c]quinolin-1-yl]-3-methyl-pyrazol-1-yl}-N,N-dimethyl-acetamide], for which the pIC50 was 7.96 in experiment [1]; 7.48 in experiment [2]; 7.47 in experiment [3]; 7.11 in experiment [4]; greater than 8.30 in experiment [5].

As to `CCn1cc(-n2c(=O)n(C)c3cnc4ccc(-c5cncc(C6(C#N)CCC6)c5)cc4c32)c(C)n1` [Example 221.2, 1-{5-[1-(1-Ethyl-3-methyl-1H-pyrazol-4-yl)-3-methyl-2-oxo-2,3-dihydro-1H-imidazo[4,5-c]quinolin-8-yl]-pyridin-3-yl}-cyclobutanecarbonitrile], the pIC50 was 7.25 in experiment [1]; 7.74 in experiment [2]; 6.99 in experiment [3]; 7.25 in experiment [4]; 9.00 in experiment [5].

Turning to `Cc1nn(C)c(C)c1-n1c(=O)n(C)c2cnc3ccc(-c4cnc(N)c(C(F)(F)F)c4)cc3c21` [Example 25.3, 8-(6-Amino-5-trifluoromethyl-pyridin-3-yl)-3-methyl-1-(1,3,5-trimethyl-1H-pyrazol-4-yl)-1,3-dihydro-imidazo[4,5-c]quinolin-2-one], the negative logarithm of the IC50 (pIC50) in experiment [1] was 6.94; in experiment [2] it was 7.60; in experiment [3], 7.14; in experiment [4], 7.23; in experiment [5] it was 8.70.

Regarding `CNc1ncc(-c2ccc3ncc4c(c3c2)n(-c2cn(C(C)C)nc2C)c(=O)n4C)cc1CO` [Example 171, 8-(5-Hydroxymethyl-6-methylamino-pyridin-3-yl)-1-(1-isopropyl-3-methyl-1H-pyrazol-4-yl)-3-methyl-1,3-dihydro-imidazo[4,5-c]quinolin-2-one], the pIC50 in experiment [1] was greater than 8.52; in experiment [2] it was 8.05; in experiment [3] it was greater than 8.30; in experiment [4], 7.39; in experiment [5] it was 8.52.

In the case of `CCOc1ccc(-c2ccc3ncc4c(c3c2)n(-c2cn(C)nc2Cl)c(=O)n4C)cn1` [Example 3.8, 1-(3-Chloro-1-methyl-1H-pyrazol-4-yl)-8-(6-ethoxy-pyridin-3-yl)-3-methyl-1,3-dihydro-imidazo[4,5-c]quinolin-2-one], the pIC50 was 8.05 in experiment [1]; 7.82 in experiment [2]; 7.64 in experiment [3]; 7.43 in experiment [4]; 7.96 in experiment [5].

For `CNc1cc(-c2ccc3ncc4c(c3c2)n(-c2cn(C)nc2C)c(=O)n4C)cnc1CO` [Example 158.1, 1-(1,3-Dimethyl-1H-pyrazol-4-yl)-8-(6-hydroxymethyl-5-methylamino-pyridin-3-yl)-3-methyl-1,3-dihydro-imidazo[4,5-c]quinolin-2-one], the negative-log IC50 (pIC50) in experiment [1] is 8.40; in experiment [2], 8.22; in experiment [3] it was 7.77; in experiment [4], 7.35; in experiment [5], 8.10.

As to `Cc1nn(C)cc1-n1c(=O)n(C)c2cnc3ccc(-c4cnc(Cl)c(N)c4)cc3c21` [Example 152.2, 8-(5-Amino-6-chloro-pyridin-3-yl)-1-(1,3-dimethyl-1H-pyrazol-4-yl)-3-methyl-1,3-dihydro-imidazo[4,5-c]quinolin-2-one], the pIC50 is 8.30 in experiment [1]; greater than 8.30 in experiment [2]; 8.00 in experiment [3]; 7.48 in experiment [4]; 9.00 in experiment [5].

For `CCNc1cc(-c2ccc3ncc4c(c3c2)n(-c2cn(C)nc2C)c(=O)n4C)cnc1COC` [Example 156, 1-(1,3-Dimethyl-1H-pyrazol-4-yl)-8-(5-ethylamino-6-methoxymethyl-pyridin-3-yl)-3-methyl-1,3-dihydro-imidazo[4,5-c]quinolin-2-one], the negative-log IC50 (pIC50) is 8.30 in experiment [1]; 8.00 in experiment [2]; 8.30 in experiment [3]; 7.92 in experiment [4]; 9.00 in experiment [5].

Consider `Cc1nn(C)cc1-n1c(=O)n(C)c2cnc3ccc(-c4ccc5c(c4)CCN5C)cc3c21` [Example 50, 1-(1,3-Dimethyl-1H-pyrazol-4-yl)-3-methyl-8-(1-methyl-2,3-dihydro-1H-indol-5-yl)-1,3-dihydro-imidazo[4,5-c]quinolin-2-one], for which the pIC50 is 6.80 in experiment [1]; 7.14 in experiment [2]; 6.92 in experiment [3]; 6.24 in experiment [4]; 7.04 in experiment [5].

The record behind these values is patent US20140005163A1 (NOVARTIS AG, priority 2010, published 2014).
